# Data reported in paper PMC5845004, “Novel (p)ppGpp Binding and Metabolizing Proteins of Escherichia coli” (mBio, 2018).
# Entries after “also recorded” stand apart in the source; their conditions may differ.
# Key:
# Apt = Apt (Escherichia coli, UniProt P69503); conditions: cited from earlier work
# SaDer = SaDer (Staphylococcus aureus, UniProt A6QH24); experiment: DRaCALA Kd determination, SaDer; assay type: binding, S. aureus
# Experimental: (§1) For Kd measurements by DRaCALA, 2-fold serial dilutions from the highest possible concentrations of each purified protein were prepared in binding buffer B, and approximately 2 nM concentrations of α-^32P-labeled ppGpp, pppGpp, GTP, and GDP were added. The mixtures were incubated for 5 min at RT before spotting of 2 µl of the reaction mixtures onto nitrocellulose membranes. The fractions of bound ligand and the apparent Kd values were calculated as previously described ([37]).
# LdcC = target: LdcC; set-up: method as in Table S1 (19); conditions: ref Table S1 (19); cited from earlier work
# HprT = tested on: HprT; set-up: method as in ref 46 (Table S1 ref 3); conditions: ref 46 (Table S1 ref 3); read-out: IC50, B. subtilis HprT; cited from earlier work
# LepA = LepA (Escherichia coli, UniProt P60785); experiment: DRaCALA binding curves, purified LepA; set-up: species or system E. coli; conditions: Kd could not be determined
# Experimental: For Kd measurements by DRaCALA, 2-fold serial dilutions from the highest possible concentrations of each purified protein were prepared in binding buffer B, and approximately 2 nM concentrations of α-^32P-labeled ppGpp, pppGpp, GTP, and GDP were added. The mixtures were incubated for 5 min at RT before spotting of 2 µl of the reaction mixtures onto nitrocellulose membranes. The fractions of bound ligand and the apparent Kd values were calculated as previously described ([37]). For competition assays, purified proteins at the specified concentrations were incubated with 2 nM [α-^32P]ppGpp or [α-^32P]pppGpp in the presence of 100 μM competitor nucleotides in binding buffer B. The reaction mixtures were incubated for 5 min at RT, 2 µl was spotted onto nitrocellulose membranes, and the values corresponding to the bound fractions were determined. EDTA was added at excess concentrations as specified for each case.
# ObgE [1] = target: T1, ObgE (Escherichia coli, UniProt P42641); experiment: DRaCALA Kd determination, purified ObgE; assay type: binding, E. coli; conditions: 2 nM 32P-labeled ligand, read-out: apparent Kd, ObgE (converted)
# Experimental: as §1
# UshA = target: T2, UshA (Escherichia coli, UniProt P07024); experiment: DRaCALA competition assay, lysate with overexpressed UshA; assay type: binding; conditions: cell lysate, 2 nM hot (p)ppGpp, 100 µM cold competitor
# T2 sequence (P07024 26-550): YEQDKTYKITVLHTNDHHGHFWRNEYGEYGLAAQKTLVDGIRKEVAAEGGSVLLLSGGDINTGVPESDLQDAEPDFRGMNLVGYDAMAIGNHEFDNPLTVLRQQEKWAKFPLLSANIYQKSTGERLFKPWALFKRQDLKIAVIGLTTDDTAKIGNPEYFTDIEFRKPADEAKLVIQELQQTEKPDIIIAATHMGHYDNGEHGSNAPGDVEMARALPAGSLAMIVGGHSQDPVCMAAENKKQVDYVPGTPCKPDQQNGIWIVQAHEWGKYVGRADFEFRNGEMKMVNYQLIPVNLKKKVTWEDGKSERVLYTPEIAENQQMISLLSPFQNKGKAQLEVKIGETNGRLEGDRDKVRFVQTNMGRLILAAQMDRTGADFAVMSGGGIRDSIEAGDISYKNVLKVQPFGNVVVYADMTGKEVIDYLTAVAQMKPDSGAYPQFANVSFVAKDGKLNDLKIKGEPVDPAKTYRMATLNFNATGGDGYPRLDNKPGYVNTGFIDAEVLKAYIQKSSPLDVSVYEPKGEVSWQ
# Experimental: Bacterial cells were collected and frozen at −80°C.
# ObgE [2] = target: T1, ObgE; set-up: method as in Table S1 (7); conditions: ref Table S1 (7); cited from earlier work
# MutT = MutT (Escherichia coli, UniProt P08337); experiment: In vitro cleavage assay (TLC), MutT; assay type: biochemical, E. coli; conditions: for cleavage by MutT: purified MutT, buffer B with 10 mM MgCl2, TLC
# Experimental: The purified His6-MutT and His6-NudG proteins were tested for their relative levels of cleavage of ppGpp compared to those seen with their native substrates. For this, a 1 μM concentration of each protein and a 10 nM concentration of [α-^32P]ppGpp were used together with 100 μM concentrations of cold competitors [ppGpp, GTP, ATP, 8-oxo-(d)GTP, 2-hydroxyl-(d)ATP] or 50 mM EDTA in buffer B. The samples were incubated at 30°C for 10 min and for 1 h before the reactions were stopped by adding 50 mM EDTA. The cleavage products were resolved by TLC as described above. The purified His6-NadR and His6-TrmE proteins were tested for their cleavage of both GTP and ppGpp. For cleavage of GTP, 10 μM concentrations of His6-MBP, His6-TrmE, and 20 μM His6-NadR proteins were used with 2 nM [α-^32P]GTP and 100 μM cold GTP in buffer B. For cleavage of ppGpp, 10 μM concentrations of His6-TrmE, His6-MBP, and His6-NadR proteins were used with 10 nM [α-^32P]ppGpp in buffer B. Of note, for His6-TrmE, another reaction was also performed in buffer B supplemented with 100 mM KCl. The reactions were performed at RT for 10 min and were stopped by adding 17% formic acid. The cleavage products were resolved by TLC as described above.
# A 20 μM concentration of each of purified proteins MutT, NudG, NadR, TrmE, and MBP (as a negative control) was incubated with 100 μM ppGpp in buffer B (containing 40 mM Tris [pH 7.5], 100 mM NaCl, and 10 mM MgCl2) for 20 min at room temperature. Samples were snap-frozen on dry ice and analyzed with UPLC-MS afterward. All samples and buffers were stored at −80°C, thawed on ice, and kept at 4°C during analysis. For the analysis, a UPLC-quadrupole time of flight (UPLC-qTOF) method (Waters) was used. Analysis conditions were as follows: column, zic-HILIC (Merck Millipore) (150 by 2.1 mm, […], gradient elution, flow rate set to 0.3 ml/min); mobile phase A, 10 mM ammonium acetate (pH 5); mobile phase B, 90% acetonitrile with 10 mM ammonium acetate (pH 5). The gradient was set up as follows: min 0 to 2, 80% B; min 2 to 16, 80% B to 50% B; hold until min 20; injection volume, 4 µl. The detection conditions were as follows: photodiode array detector (PDA), […] (evaluated at 260 nm); MS, ionization; electrospray ionization (ESI+), scan, 200 to 800 m/z with lock mass correction. Analytes were identified by their accurate mass and retention time data for a known standard dissolved in used buffer (for the chemicals of the same nominal masses). These standards were either synthesized and their structures confirmed by nuclear magnetic resonance (NMR) (for ppGp, pGpp, and pGp) or purchased (ppGpp was purchased from Jena Biocsience and GTP from Sigma-Aldrich).
# Gmk = target: Gmk; set-up: method as in Table S1 (4); conditions: ref Table S1 (4); read-out: Kd, S. aureus Gmk; cited from earlier work
# HypB = HypB (Escherichia coli, UniProt P0AAN3); experiment: DRaCALA Kd determination, purified HypB; assay type: binding, E. coli; conditions: 2 nM 32P-labeled ligand, read-out: apparent Kd, HypB
# Experimental: For Kd measurements by DRaCALA, 2-fold serial dilutions from the highest possible concentrations of each purified protein were prepared in binding buffer B, and approximately 2 nM concentrations of α-^32P-labeled ppGpp, pppGpp, GTP, and GDP were added. The mixtures were incubated for 5 min at RT before spotting of 2 µl of the reaction mixtures onto nitrocellulose membranes. […] For competition assays, purified proteins at the specified concentrations were incubated with 2 nM [α-^32P]ppGpp or [α-^32P]pppGpp in the presence of 100 μM competitor nucleotides in binding buffer B. The reaction mixtures were incubated for 5 min at RT, 2 µl was spotted onto nitrocellulose membranes, and the values corresponding to the bound fractions were determined. EDTA was added at excess concentrations as specified for each case.
# SpeC = target: SpeC; set-up: method as in Table S1 (19); conditions: ref Table S1 (19); cited from earlier work
# EF-Tu = target: EF-Tu; set-up: method as in Table S1 (9); conditions: ref Table S1 (9); cited from earlier work
# GppA = tested on: GppA; set-up: method as in Table S1 (17); conditions: ref Table S1 (17); cited from earlier work
# Sequence of MutT (P08337 whole entry): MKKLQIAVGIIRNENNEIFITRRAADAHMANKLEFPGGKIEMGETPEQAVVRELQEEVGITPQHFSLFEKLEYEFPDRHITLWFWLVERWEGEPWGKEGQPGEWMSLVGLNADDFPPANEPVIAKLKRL
# T1 sequence (P42641 whole entry): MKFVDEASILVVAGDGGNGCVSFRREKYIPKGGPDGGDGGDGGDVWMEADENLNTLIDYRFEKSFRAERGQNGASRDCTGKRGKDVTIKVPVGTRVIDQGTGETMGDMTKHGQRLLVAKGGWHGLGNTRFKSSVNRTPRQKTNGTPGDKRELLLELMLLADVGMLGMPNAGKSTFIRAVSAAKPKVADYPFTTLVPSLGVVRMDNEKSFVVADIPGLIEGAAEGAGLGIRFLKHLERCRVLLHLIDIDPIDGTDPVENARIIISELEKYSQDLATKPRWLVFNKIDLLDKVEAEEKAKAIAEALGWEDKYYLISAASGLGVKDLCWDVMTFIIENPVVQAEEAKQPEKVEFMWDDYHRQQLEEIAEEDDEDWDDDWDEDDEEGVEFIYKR
# Sequence of LepA (P60785 whole entry): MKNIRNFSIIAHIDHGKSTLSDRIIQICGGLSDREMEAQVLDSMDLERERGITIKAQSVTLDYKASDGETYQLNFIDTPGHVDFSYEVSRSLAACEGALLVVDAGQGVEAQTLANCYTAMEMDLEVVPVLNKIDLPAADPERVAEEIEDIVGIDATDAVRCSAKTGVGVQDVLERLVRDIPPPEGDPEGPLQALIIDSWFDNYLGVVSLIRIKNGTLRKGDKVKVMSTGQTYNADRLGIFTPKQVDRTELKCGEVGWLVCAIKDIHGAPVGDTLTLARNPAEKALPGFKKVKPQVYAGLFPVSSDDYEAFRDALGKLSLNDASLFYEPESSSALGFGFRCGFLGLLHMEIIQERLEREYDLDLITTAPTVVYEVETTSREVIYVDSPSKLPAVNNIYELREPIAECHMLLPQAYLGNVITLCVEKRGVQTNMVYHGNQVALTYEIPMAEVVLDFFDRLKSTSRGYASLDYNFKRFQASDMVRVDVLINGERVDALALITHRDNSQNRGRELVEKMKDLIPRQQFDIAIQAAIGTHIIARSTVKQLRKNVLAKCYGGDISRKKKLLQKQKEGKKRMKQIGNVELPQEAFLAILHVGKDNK
# Sequence of HypB (P0AAN3 whole entry): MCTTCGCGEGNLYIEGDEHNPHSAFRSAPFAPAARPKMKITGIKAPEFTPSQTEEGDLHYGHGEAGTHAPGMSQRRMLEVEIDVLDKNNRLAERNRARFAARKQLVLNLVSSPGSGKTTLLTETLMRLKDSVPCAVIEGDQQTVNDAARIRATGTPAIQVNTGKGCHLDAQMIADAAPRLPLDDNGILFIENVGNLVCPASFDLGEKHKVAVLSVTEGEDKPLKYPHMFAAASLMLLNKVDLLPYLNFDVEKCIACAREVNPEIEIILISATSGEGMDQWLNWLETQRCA
# Sequence of Apt (P69503 whole entry): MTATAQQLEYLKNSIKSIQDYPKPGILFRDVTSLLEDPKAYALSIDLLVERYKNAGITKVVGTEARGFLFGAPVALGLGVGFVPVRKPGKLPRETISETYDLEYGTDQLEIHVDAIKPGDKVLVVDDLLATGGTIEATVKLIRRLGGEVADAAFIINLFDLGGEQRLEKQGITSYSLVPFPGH
# Sequence of SaDer (A6QH24 whole entry): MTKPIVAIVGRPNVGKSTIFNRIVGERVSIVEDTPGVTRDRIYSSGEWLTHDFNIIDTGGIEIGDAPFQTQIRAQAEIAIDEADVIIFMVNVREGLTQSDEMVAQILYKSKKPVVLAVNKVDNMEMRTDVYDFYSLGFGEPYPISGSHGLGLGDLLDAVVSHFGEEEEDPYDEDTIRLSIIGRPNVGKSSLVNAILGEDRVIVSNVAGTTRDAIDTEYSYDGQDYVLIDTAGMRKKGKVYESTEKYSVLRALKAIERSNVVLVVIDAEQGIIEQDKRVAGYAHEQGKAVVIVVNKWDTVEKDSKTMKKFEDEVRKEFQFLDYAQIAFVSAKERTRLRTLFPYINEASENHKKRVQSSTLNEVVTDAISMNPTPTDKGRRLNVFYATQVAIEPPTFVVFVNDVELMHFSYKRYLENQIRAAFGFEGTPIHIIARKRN
SMILES,IC50 (Apt) [µM],Kd (SaDer) [µM],Kd (LdcC) [µM],IC50 (HprT) [µM],relative binding to LepA (binding curves) (LepA),Kd (ObgE [1]) [µM],competition for UshA-bound (p)ppGpp (UshA),Ki (ObgE [2]) [µM],"inhibition of [α-32P]ppGpp cleavage by MutT (MutT; 1 µM MutT, 10 nM hot ppGpp, 100 µM competitor, 30°C, up to 1 h)",cleavage by MutT (MutT),Kd (Gmk) [µM],Kd (HypB) [µM],Kd (SpeC) [µM],Ki (EF-Tu) [µM],conversion by GppA (GppA)
"Nc1nc2c(ncn2[C@@H]2O[C@H](COP(=O)(O)OP(=O)(O)O)[C@@H](OP(=O)(O)OP(=O)(O)O)[C@H]2O)c(=O)[nH]1 [ppGpp, guanosine tetraphosphate]",~1500,3.8 ± 0.5,0.1 to 0.5,11,tighter binding of ppGpp than pppGpp; also recorded: ND; stronger binding to ppGpp than pppGpp,1.8 ± 0.3,"could outcompete the bound, radiolabeled (p)ppGpp",1.6,very limited inhibitory effects,degraded into smaller products; also recorded: cleaved most ppGpp,6.02,12.4 ± 3,0.598 ± 0.068,60,
"Nc1nc2c(ncn2[C@@H]2O[C@H](COP(=O)(O)OP(=O)(O)OP(=O)(O)O)[C@@H](OP(=O)(O)OP(=O)(O)O)[C@H]2O)c(=O)[nH]1 [pppGpp, guanosine pentaphosphate]",,,,,,6.6,"could outcompete the bound, radiolabeled (p)ppGpp",,,degraded into smaller products,4.01,14.8 ± 5.1,,,Convert pppGpp to ppGpp; (17)
